Assay results taken from US11634701B2, “Metabolic pathways with increased carbon yield” (TOTAL RAFFINAGE CHIMIE, priority 2018, dated 2023).
Read-outs that look alike come from different tables or passages of the source.

Experiments:
[1] = system: C. acetobutylicum Tpi (triose phosphate isomerase); settings: measured experimentally or estimated from literature, cited from earlier work
[2] = system: C. acetobutylicum Fba (fructose-1,6-bisphosphate aldolase); settings: measured experimentally or estimated from literature, cited from earlier work
[3] = system: C. acetobutylicum Tal (transaldolase); settings: measured experimentally or estimated from literature, cited from earlier work
[4] = system: C. acetobutylicum Tkt′ (transketolase, second reaction); settings: measured experimentally or estimated from literature, cited from earlier work
[5] = system: C. acetobutylicum Tkt (transketolase); settings: measured experimentally or estimated from literature, cited from earlier work
[6] = system: C. acetobutylicum Rpi (ribose-5-phosphate isomerase); settings: measured experimentally or estimated from literature, cited from earlier work
[7] = system: C. acetobutylicum Fbp (fructose-1,6-biphosphatase); experiment: Kinetic parameters of C. acetobutylicum NOG enzymes (Fbp); format: biochemical; settings: measured experimentally or estimated from literature
Experimental: (§1) The kinetic parameters of C. acetobutylicum enzymes involved in the NOG pathway were measured experimentally or estimated from literature (Table 1) and compiled in a COPASI toolbox for kinetic simulations.

[8] = system: C. acetobutylicum Fba (fructose-1,6-bisphosphate aldolase); experiment: Kinetic parameters of C. acetobutylicum NOG enzymes (Fba); format: biochemical; settings: measured experimentally or estimated from literature; read-out: Kms
Experimental: as §1

[9] = system: C. acetobutylicum Rpe (ribulose-3-phosphate epimerase); settings: measured experimentally or estimated from literature, cited from earlier work
[10] = target: T1, C. acetobutylicum Xpk (xylulose-5-phosphate phosphoketolase) (Clostridium acetobutylicum, UniProt Q97JE3); experiment: Kinetic parameters of C. acetobutylicum NOG enzymes (Xpk); format: biochemical; settings: measured experimentally or estimated from literature
T1 sequence (Q97JE3 1-796): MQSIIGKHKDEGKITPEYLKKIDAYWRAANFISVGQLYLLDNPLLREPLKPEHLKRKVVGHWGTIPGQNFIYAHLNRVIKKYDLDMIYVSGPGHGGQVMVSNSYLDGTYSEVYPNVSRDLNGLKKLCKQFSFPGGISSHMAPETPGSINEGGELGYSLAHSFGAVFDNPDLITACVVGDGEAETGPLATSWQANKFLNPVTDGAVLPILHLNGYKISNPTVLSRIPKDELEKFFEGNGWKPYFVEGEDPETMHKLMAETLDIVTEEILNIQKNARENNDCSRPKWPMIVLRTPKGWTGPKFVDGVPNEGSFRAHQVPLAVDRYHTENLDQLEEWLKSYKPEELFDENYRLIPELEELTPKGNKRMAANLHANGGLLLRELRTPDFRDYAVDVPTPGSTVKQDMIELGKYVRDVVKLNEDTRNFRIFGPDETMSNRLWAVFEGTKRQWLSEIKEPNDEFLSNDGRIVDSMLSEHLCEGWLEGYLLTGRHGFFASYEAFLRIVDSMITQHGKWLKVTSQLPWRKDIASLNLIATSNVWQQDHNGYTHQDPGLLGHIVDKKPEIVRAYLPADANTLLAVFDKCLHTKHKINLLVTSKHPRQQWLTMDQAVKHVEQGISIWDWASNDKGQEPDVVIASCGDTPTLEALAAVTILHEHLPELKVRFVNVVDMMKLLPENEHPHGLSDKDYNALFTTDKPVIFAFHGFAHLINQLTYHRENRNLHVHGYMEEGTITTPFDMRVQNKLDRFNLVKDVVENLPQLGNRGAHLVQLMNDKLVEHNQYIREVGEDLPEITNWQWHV
Experimental: as §1

Structure (SMILES): O=C(CO)COP(=O)(O)O [dihydroxyacetone phosphate]
- Km ([1]; read-out: Kms): 6450 µM
- Km ([2]; read-out: Kmp): 2000 µM

Structure (SMILES): O=C[C@H](O)COP(=O)(O)O [glyceraldehyde-3-phosphate]
- Km ([3]; read-out: Kma): 272 µM
- Km ([4]; read-out: Kmq): 100 µM
- Km ([1]; read-out: Kmp): 5250 µM
- Ki ([2]; read-out: Kip): 10 mM
- Km ([2]; read-out: Kmq): 2400 µM

Structure (SMILES): O=C(CO)[C@@H](O)[C@H](O)[C@H](O)[C@H](O)COP(=O)(O)O [sedoheptulose-7-phosphate]
- Km ([3]; read-out: Kmb): 786 µM
- Km ([5]; read-out: Kmq): 150 µM

Structure (SMILES): O=P(O)(O)OC[C@H]1OC(O)[C@H](O)[C@@H]1O (stereo partly shown) [ribose-5-phosphate]
- Km ([5]; read-out: Kmb): 235 µM
- Km ([6]; read-out: Kmp): 5700 µM

Structure (SMILES): O=C[C@H](O)[C@H](O)COP(=O)(O)O [erythrose-4-phosphate]
- Km ([3]; read-out: Kmq): 362 µM
- Km ([4]; read-out: Kma): 946 µM

Structure (SMILES): O=P(O)(O)OC[C@H]1OC(O)(COP(=O)(O)O)[C@@H](O)[C@@H]1O (stereo partly shown) [fructose-1,6-bisphosphate]
- Km [7]: 63 µM
- Km [8]: 1140 µM

Structure (SMILES): O=P(O)(O)OC[C@H]1OC(O)(CO)[C@@H](O)[C@@H]1O (stereo partly shown) [fructose-6-phosphate]
- Km ([3]; read-out: Kmp): 1440 µM
- Km ([4]; read-out: Kmp): 1100 µM

Structure (SMILES): O=C(CO)[C@H](O)[C@H](O)COP(=O)(O)O [ribulose-5-phosphate]
- Km ([9]; read-out: Kms): 5970 µM
- Km ([6]; read-out: Kms): 2470 µM

Structure (SMILES): O=C(CO)[C@@H](O)[C@H](O)COP(=O)(O)O [xylulose-5-phosphate]
- Km [10]: 6400 µM
- Km ([4]; read-out: Kmb): 670 µM
- Km ([9]; read-out: Kmp): 7700 µM
